What was measured:
HDAC6 = target: T1, HDAC6 (Homo sapiens, UniProt Q9UBN7); assay: HDAC6 assay with acetylated p53 peptide (residues 379–382, RHKKAc-AMC) as substrate; type: biochemical
T1 sequence (Q9UBN7 1-1215): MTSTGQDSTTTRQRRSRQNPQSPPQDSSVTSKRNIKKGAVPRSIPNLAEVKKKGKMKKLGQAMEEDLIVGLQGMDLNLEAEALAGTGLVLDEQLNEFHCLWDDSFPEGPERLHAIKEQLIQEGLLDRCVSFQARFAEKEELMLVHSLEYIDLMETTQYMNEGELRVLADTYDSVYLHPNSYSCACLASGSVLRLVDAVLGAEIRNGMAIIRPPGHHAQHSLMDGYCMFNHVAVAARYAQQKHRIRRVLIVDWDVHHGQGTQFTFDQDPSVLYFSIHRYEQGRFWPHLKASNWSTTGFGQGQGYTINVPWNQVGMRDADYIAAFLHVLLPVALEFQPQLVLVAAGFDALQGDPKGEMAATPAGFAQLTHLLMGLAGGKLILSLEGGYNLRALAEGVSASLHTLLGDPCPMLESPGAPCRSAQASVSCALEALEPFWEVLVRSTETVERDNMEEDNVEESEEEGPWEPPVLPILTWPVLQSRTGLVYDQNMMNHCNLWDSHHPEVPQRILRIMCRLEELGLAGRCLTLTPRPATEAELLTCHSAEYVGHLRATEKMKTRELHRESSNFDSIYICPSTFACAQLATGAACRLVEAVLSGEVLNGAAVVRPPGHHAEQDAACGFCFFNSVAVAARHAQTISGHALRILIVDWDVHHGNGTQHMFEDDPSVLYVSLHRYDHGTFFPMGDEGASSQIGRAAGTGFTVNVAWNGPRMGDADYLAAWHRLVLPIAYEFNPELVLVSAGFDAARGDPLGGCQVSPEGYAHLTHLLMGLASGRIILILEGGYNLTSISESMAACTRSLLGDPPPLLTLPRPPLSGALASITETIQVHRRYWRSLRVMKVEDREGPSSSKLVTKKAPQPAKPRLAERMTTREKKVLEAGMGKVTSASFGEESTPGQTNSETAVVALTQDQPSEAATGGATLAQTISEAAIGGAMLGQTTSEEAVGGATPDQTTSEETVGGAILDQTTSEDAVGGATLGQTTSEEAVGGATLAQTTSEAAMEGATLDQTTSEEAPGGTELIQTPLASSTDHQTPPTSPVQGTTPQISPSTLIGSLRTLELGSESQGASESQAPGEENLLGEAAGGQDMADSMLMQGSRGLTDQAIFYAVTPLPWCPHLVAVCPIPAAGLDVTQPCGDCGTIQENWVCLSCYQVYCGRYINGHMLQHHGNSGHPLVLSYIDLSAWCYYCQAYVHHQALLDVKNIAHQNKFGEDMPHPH

[1] = test system: acetylation levels of histone H3 (HDAC1 target) in DU145 cells; assay: Western blot of histone H3 acetylation in DU145 cells; type: cell-based, human; conditions: 24 h, 10 µM
Protocol: The results corroborate the inhibitory activity of 17, 23, 25 and 27 at concentrations lower than 10 µM. […] HDACs contribution to CRPC is known[20] and the possibility to arrest CRPC proliferation by acting on HDAC targets is expanding in the scientific literature[21]^,[22]. After administration of the selected compounds for 24 h at 10 µM concentration, the effect on the acetylation levels of histone H3 and α-tubulin (respectively, HDAC1 and HDAC6 targets) was investigated. […] Lastly, in the same cell line, the anti-proliferative effect was measured in dose and time dependent manner (Figure S4).
Figure S3. Western blotting analysis of the tested and reference compounds SAHA and Tubastatin A on acetylation levels of histone H3 and α-tubulin in DU145 cells. GAPDH and H4 were used as a loading control. Densitometric values were analyzed using ImageJ Software and are reported on the top of bands as the ratio between loading control and acetylated target.
(1 picture or pasted object on this page, not shown here) […]
1.4 Western blot analysis
The prostate cancer cell line DU145 (ATCC) was grown in RPMI medium (Euroclone, Milan, Italy) with 10% fetal bovine serum (Euroclone), 2 mM L-glutamine (Euroclone), and antibiotics (100 U/mL penicillin, […] streptomycin) (Euroclone). Cells were stimulated with drugs for […]
Total Protein Extraction and western blot
After the induction with the test compounds at the indicated times and concentrations, DU145 cells were then harvested, washed with phosphate-buffered saline (PBS) (Euroclone), and lysed for 15 min at 4 °C in lysis extraction buffer with protease and phosphatase inhibitors (50 mM Tris -HCl pH 8.0, 150 mM NaCl, 1% NP40, 10 mM sodium fluoride, 0.1 mM sodium orthovanadate, […] phenylmethylsulfonyl fluoride 58 (PMSF), 20 g/mL aprotinin, […] leupeptin, […] antipain, 10 mM p -nitrophenyl phosphate, […] pepstatin A and 20 nM okada ic acid). Cells were vortexed then centrifuged at 13000 rpm for 30 min at 4 °C. Bradford assay (Biorad, Italy) was used to quantify protein concentration. […] The immune complexes were first detected with horseradish peroxidase-conjugated species-specific secondary antiserum (Bio-Rad Laboratories, Milan, Italy), and then by an enhanced chemiluminescence reaction (Bio-Rad Laboratories, Milan, Italy). […]
were harvested and washed twice with cold 1× PBS and lysed in Triton extraction buffer (TEB; PBS containing 0.5% Triton X 100 (v/v), 2 mM PMSF, and 0.02% (w/v) NaN3) for 10 min on ice, with gentle stirring. […] The samples were then centrifuged at 2000 rpm for 10 min at 4 °C; the concentration of protein in the supernatant was determined […]
using a Bradford assay (Bio-Rad, CA, USA). […] Semi-quantitative analysis was performed using ImageJ software. […]

concentration showing inhibitory activity on HDAC6 (HDAC6)	SMILES	effect on acetylation levels of histone H3 [1]
below 10 µM	Oc1cc(-c2ccc3c(c2)OCO3)on1 [Compound 25]	no effect
below 10 µM	Oc1cc(-c2ccc(NCc3ccccc3)cc2)on1 [Compound 23]	no effect

— article PMC8480759, “Inhibitors of histone deacetylase 6 based on a novel 3-hydroxy-isoxazole zinc binding group” (Journal of Enzyme Inhibition and Medicinal Chemistry, 2021)
